Measurements reported in US10703784B2, “Antigens and epitopes derived from Mycobacterium tuberculosis” (priority 2011, dated 2020).
“And” between values parts separate entries of the source, which are not always exact repeats. Equal values may be shown once. Read-outs that look alike come from different tables or passages of the source.

B1: Rv3125c: MTB protein, novel CD4 T cell antigen; PE/PPE (protein, listed as Mycobacterium tuberculosis)
chain: MVLGFSWLPPEINSARMFAGAGSGPLFAAASAWEGLAADLWASASSFESVLAALTTGPWTGPASMSMAAAASPYVGWLSTVASQAQLAAIQARAAATAFEAALAATVHPTAVTANRVSLASLIAANVLGQNTPAIAATEFDYLEMWAQDVAAMVGYHAGAKSVAATLAPFSLPPVSLAGLAAQVGTQVAGMATTASAAVTPVVEGAMASVPTVMSGMQSLVSQLPLQHASMLFLPVRILTSPITTLASMARESATRLGPPAGGLAAANTPNPSGAAIPAFKPLGGRELGAGMSAGLGQAQLVGSMSVPPTWQGSIPISMASSAMSGLGVPPNPVALTQAAGAAGGGMPMMLMPMSISGAGAGMPGGLMDRDGAGWHVTQARLTVIPRTGVG
B2: Rv3615c: MTB antigen functionally linked to Esx-1 (Millington et al., 2011); single antigen, not part of an antigenic island (protein, UniProt P9WJD7 2-103, looked up)
ESX-1 secretion-associated …: TENLTVQPERLGVLASHHDNAAVDASSGVEAAAGLGESVAITHGPYCSQFNDTLNVYLTAHNALGSSLHTAGVDLAKSLRIAAKIYSEADEAWRKAIDGLFT
B3: Rv3330: MTB protein, novel CD4 T cell antigen; Cell wall and cell processes (protein, listed as Mycobacterium tuberculosis)
chain: MAFLRSVSCLAAAVFAVGTGIGLPTAAGEPNAAPAACPYKVSTPPAVDSSEVPAAGEPPLPLVVPPTPVGGNALGGCGIITAPGSAPAPGDVSAEAWLVADLDSGAVIAARDPHGRHRPASVIKVLVAMASINTLTLNKSVAGTADDAAVEGTKVGVNTGGTYTVNQLLHGLLMHSGNDAAYALARQLGGMPAALEKINLLAAKLGGRDTRVATPSGLDGPGMSTSAYDIGLFYRYAWQNPVFADIVATRTFDFPGHGDHPGYELENDNQLLYNYPGALGGKTGYTDDAGQTFVGAANRDGRRLMTVLLHGTRQPIPPWEQAAHLLDYGFNTPAGTQIGTLIEPDPSLMSTDRNPADRQRVDPQAAARISAADALPVRVGVAVIGALIVFGLIMVARAMNRRPQH
B4: Rv0294: MTB protein, novel CD4 T cell antigen; Intermediary metabolism and respiration, Island 1 (protein, listed as Mycobacterium tuberculosis)
chain: MWDPDVYLAFSGHRNRPFYELVSRVGLERARRVVDLGCGPGHLTRYLARRWPGAVIEALDSSPEMVAAAAERGIDATTGDLRDWKPKPDTDVVVSNAALHWVPEHSDLLVRWVDELAPGSWIAVQIPGNFETPSHAAVRALARREPYAKLMRDIPFRVGAVVQSPAYYAELLMDTGCKVDVWETTYLHQLTGEHPVLDWITGSALVPVRERLSDESWQQFRQELIPLLNDAYPPRADGSTIFPFRRLFMVAEVGGARRSGG
B5: Rv1788: MTB protein, novel CD4 T cell antigen; PE/PPE (protein, listed as Mycobacterium tuberculosis)
chain: MSFVTTQPEALAAAAGSLQGIGSALNAQNAAAATPTTGVVPAAADEVSALTAAQFAAHAQIYQAVSAQAAAIHEMFVNTLQMSSGSYAATEAANAAAAG
B6: Rv1791: MTB protein, novel CD4 T cell antigen; PE/PPE (protein, listed as Mycobacterium tuberculosis)
chain: MSFVTTQPEALAAAAANLQGIGTTMNAQNAAAAAPTTGVVPAAADEVSALTAAQFAAHAQMYQTVSAQAAAIHEMFVNTLVASSGSYAATEAANAAAAG

System: PBMCs from LTBI donors (IFN-γ production)
Format: cell-based, human
Conditions: for Resp. freq.: fraction of 28 LTBI donors responding to epitopes of the antigen; for Resp. freq. / Total SFC: ex vivo IFN-γ ELISPOT; for Total SFC: total spot-forming cells, LTBI donors
[1] = individual MTB epitope peptide, one value per responding LTBI donor

Molecule | SFC [1] | other results
FRVVISSRFGDIFRG | 20.0 | 
ALLWLADQVDAALEK | 48.3 | 
ADKNPLFLDEQLTRA | 45.0 | 
AHLIHFAAANLRNPG | 30.0 | 
RVLLAGWEQFDEPVD | 101.7 | 
QLSAEYASTAAELSG | 26.7 | 
AGAMGAYAAAEAANA | 111.7 | 
AHESLCFAGANLIPL | 25.0 | 
VDVEDGRVIVDEYQR | 20.0 | 
TDNGAMIAAFAAQLV | 203.3 and 30.0 | 
Rv2853: MTB protein, novel CD4 T cell antigen; PE/PPE |  | Resp. freq.: 11%; Total SFC: 85 SFC
EMLSMLRAMLAPESL | 40.0 | 
EGGNQIVQYLVAQKI | 25.0 | 
RARQGFRDIEFHPTI | 45.0 and 28.3 | 
AQEYQALSAQAAAFH | 41.7 | 
AMNEAFVAMLGASAD | 31.7 | 
ITPDEGAYAFEALLR | 28.3 | 
DTEVYLDAASLSPFV | 266.7 | 
APPNLIRAILRAPVD | 30.0 | 
ELADLIEFARTVNEE | 43.3 | 
ALVEEYLRGLRQAAG | 30.0 | 
DPVKGADEVVAFAEE | 813.3 | 
ALPRLLRRLVIMGGM | 128.3 | 
CLGSHLARLELTLLV | 91.7 | 
FFGQNAPAIAAIEAA | 20.0 and 21.7 | 

Molecule | SFC [1] | other results
Rv3022c: MTB protein, novel CD4 T cell antigen; PE/PPE, Island 2 |  | Resp. freq.: 18%; Total SFC: 109 SFC
SILDMRQLFDGIDLS | 26.7 | 
ARVFLDSVLPALGEE | 38.3 | 
DVIHAFWVPEFLFKR | 158.3 | 
ASMSMAAAASPYVGW | 78.3 | 
SQVIEAVNLFRANVI | 33.3 | 
LDWFCLFSSAAALTG | 23.3 | 
LRLLVIALKHNVILN | 31.7 | 
AVVVLKRLPDALADG | 25.0 | 
DPINEFFLANTGRPL | 66.7 | 
QAVLTATNFFGINTI | 341.7 | 
CRRYEVLLIFDEIAT | 65.0 | 
DVTIRFRRFFSRLQR | 50.0 | 
EKMRVAGRIAAGALA | 20.0 | 
NPFPFLRQIIANQQV | 26.7 | 
ESALFFIGVLIVALL | 55.0 | 
AAFDYADGAAEDELS | 21.7 | 
AVITELIAMLRHHHI | 40.0 | 
QAARGIRPLFDDITE | 21.7 | 
DDIPRVLAEAFHIAA | 31.7 | 
EHFGHERYDAFFSLA | 66.7 | 
ETLYWLAQPGIRESI | 31.7 | 
AVSIGILLSLIAPLG | 55.0 | 
ERYVGLYLPFLDMSF | 23.3 | 
AQTSQFVMAMINYED | 26.7 | 

Molecule | SFC [1] | other results
EVNIKILIDSLVSAG | 201.7 | 
AGISSLIIDPNPMFV | 88.3 | 
RVIEDALRFYFESHE | 141.7 | 
AAVIVGSGRIASLYV | 23.3 | 
AGGFGGAGAGIANFL | 20.0 | 
ESVFAATVAELESLI | 36.7 | 
PPEVNSARVFAGAGS | 38.3 and 31.7 | 
LLSTRGYITAEKIRS | 35.0 | 
SEFNEVFFNDVFVPD | 41.7 | 
EQMLIDDGILLRKYW | 178.3 | 
ESGASYAARDALAAA | 45.0 | 
ALRILVYSDNVQTRE | 91.7 | 
AQIIHRITATARHPG | 53.3 | 
AVLEDPYILLVSSKV | 21.7 | 
IGSSIGAANAAAAGS | 45.0 | 
Rv0289: MTB protein, novel CD4 T cell antigen; Cell wall and cell processes, Island 1, Esx-3 |  | Resp. freq.: 29%; Total SFC: 2298 SFC
ARFHQQFVQALTASV | 35.0 | 
CSEDLLYLSDLDFDV | 33.3 | 
HTVLVATNFFGINTI |  | SFC: 331.7
QRPRMLYDYFHQLFA | 141.7 | 
LVAQEAAAAGTPLVT | 23.3 | 
AVDAVFVGSCTNGRI | 46.7 | 
SAAGSYAAAEAANAS | 91.7 and 21.7 | 
EHIHRPNTNNVGPII | 65.0 | 
YLAWLSTAAAQAEQA | 145.0 and 100.0 | 

Molecule | SFC [1] | other results
TVAWTMLGVALSAYE | 50.0 and 25.0 | 
DTQSMIVTDHRYVPA | 33.3 | 
ASVGSYAAAEAANAS | 38.3 | 
HPQQFIYAGSLSALL | 35.0 | 
AGYPAELAYFEVLHE | 23.3 | 
LYRPGLVHIYHALTW | 28.3 | 
Rv1243c: MTB protein, novel CD4 T cell antigen; PE/PPE |  | Resp. freq.: 11%; Total SFC: 114 SFC
ENFFMFIAEEVREYL | 23.3 and 65.0 | 
AELFRLQTEFVKLQE | 85.0 | 
AVLLEKIVADEEEHI | 26.7 and 28.3 | 
LTVDAGAYASAEAAN | 31.7 and 58.3 | 
TGIFGLVLVICVVLI | 35.0 | 
CRGYDVVILDRYVAS | 21.7 | 
AAAQASAAAAAYEAA | 20.0 | 
FLMSVGALIIGWLLQ | 26.7 | 
KMAPVLRQIYDQMAE | 66.7 | 
DMTKIVGLRARAKAA | 35.0 | 
GSTINAANAAAALPT | 36.7 and 190.0 | 
DSTVITDGDIVNIDV | 31.7 | 
LVLVIDDEPQILRAL | 81.7 | 
AGTLSTFFGVPLVLT | 21.7 | 
GFTIANHNAAAVGEI | 140.0 | 
GQQYQAMSAQAAAFH | 50.0 | 
APVVILAHGFPELAY | 23.3 | 
FSLVNFFDAQVGPLS | 43.3 | 

Molecule | SFC [1] | other results
GSAENFSVVEALADS | 138.3 and 20.0 | 
MAKTIAYDEEARRGL | 38.3 and 56.7 | 
NRASLMQLISTNVFG | 21.7 | 
IGLVLIAVLVFVPRV | 38.3 | 
LPLLVPLRAIPLLGN | 20.0 | 
AAHAGEYGQMVTLRG | 23.3 | 
ALEMFYDDDADLSII | 25.0 | 
QAFRSRFGENFFYIL | 31.7 | 
ADVLTMKAVRAATAL | 41.7 | 
EPGDIIIDGGNALYT | 35.0 | 
MDYFIRMWNQAALAM | 46.7 | 
EIYLNTFRHLYGLDC | 25.0 | 
GAYAAAEAANVSAAQ | 176.7 | 
SLAVKTFEDLFAELG | 23.3 | 
APWQQVLRNLGIDIG | 96.7 | 
QTLVYKGMLTTPQLK | 40.0 | 
DLDSYLVEITAEVLR | 23.3 | 
B1 |  | Resp. freq.: 21%; Total SFC: 125 SFC
B2 |  | recognition by LTBI donors (result in words): prevalently recognized
B3 |  | Resp. freq.: 29%; Total SFC: 1595 SFC
B4 |  | Resp. freq.: 18%; Total SFC: 1368 SFC
B5 |  | Resp. freq.: 25%; Total SFC: 347 SFC
B6 |  | Resp. freq.: 25%; Total SFC: 355 SFC
